Experimental data taken from ChEMBL document CHEMBL4419163, “Assays for identifying compounds that modulate bitter taste” (2014).

Columns and labels:
Format in all cases: functional, cell-based
[1] = molecular target: T1, Taste receptor type 2 member 7 (Homo sapiens) (UniProt Q9NYW3); assay: Agonist activity at human TAS2R7 expressed in HEK293T cells co-expressing Galpha15 assessed as increase in intracellular calcium level at 20 mM by Calcium-3 dye based fluorescence assay relative to control
T1 sequence (whole entry): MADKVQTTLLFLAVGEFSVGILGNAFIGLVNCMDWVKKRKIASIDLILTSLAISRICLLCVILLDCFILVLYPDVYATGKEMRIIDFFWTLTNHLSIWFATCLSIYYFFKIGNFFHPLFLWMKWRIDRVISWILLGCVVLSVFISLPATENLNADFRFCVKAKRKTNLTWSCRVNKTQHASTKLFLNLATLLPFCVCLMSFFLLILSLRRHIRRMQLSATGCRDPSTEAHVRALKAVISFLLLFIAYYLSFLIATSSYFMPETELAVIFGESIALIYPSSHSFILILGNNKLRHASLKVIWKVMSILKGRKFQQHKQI

[2] = molecular target: T2, Taste receptor type 2 member 3 (Homo sapiens) (UniProt Q9NYW6); assay: Agonist activity at human TAS2R3 expressed in HEK293T cells co-expressing Galpha15 assessed as increase in intracellular calcium level at 20 mM by Calcium-3 dye based fluorescence assay relative to control
T2 sequence (whole entry): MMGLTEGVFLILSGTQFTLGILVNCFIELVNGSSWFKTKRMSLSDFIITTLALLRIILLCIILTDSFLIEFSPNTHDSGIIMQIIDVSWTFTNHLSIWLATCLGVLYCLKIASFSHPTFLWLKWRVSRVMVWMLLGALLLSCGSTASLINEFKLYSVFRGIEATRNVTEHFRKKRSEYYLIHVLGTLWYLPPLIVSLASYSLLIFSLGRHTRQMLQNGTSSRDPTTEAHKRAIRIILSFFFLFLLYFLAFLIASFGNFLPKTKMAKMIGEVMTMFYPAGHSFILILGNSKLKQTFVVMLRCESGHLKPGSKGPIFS

[3] = molecular target: T3, Taste receptor type 2 member 50 (Homo sapiens) (UniProt P59544); assay: Agonist activity at human TAS2R50 expressed in HEK293T cells co-expressing Galpha15 assessed as increase in intracellular calcium level at 20 mM by Calcium-3 dye based fluorescence assay relative to control
T3 sequence (whole entry): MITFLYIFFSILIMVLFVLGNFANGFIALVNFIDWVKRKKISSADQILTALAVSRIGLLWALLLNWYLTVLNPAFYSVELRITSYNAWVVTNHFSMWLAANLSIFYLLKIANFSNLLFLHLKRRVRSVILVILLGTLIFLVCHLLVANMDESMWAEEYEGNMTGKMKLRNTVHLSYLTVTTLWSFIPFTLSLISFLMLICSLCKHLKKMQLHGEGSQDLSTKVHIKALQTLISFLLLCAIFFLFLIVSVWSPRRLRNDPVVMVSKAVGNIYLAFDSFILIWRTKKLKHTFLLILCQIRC

[4] = molecular target: T4, Taste receptor type 2 member 16 (Homo sapiens) (UniProt Q9NYV7); assay: Agonist activity at human TAS2R16 expressed in HEK293T cells co-expressing Galpha15 assessed as increase in intracellular calcium level at 20 mM by Calcium-3 dye based fluorescence assay relative to control
T4 sequence (whole entry): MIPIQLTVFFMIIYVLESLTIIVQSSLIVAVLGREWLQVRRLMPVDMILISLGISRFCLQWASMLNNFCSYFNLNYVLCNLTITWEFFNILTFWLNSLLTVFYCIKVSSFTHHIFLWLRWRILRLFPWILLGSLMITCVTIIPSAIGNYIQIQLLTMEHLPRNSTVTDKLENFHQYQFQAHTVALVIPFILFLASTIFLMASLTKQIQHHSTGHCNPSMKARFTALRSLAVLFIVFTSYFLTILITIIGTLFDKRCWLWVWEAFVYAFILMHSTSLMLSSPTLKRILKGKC

[5] = molecular target: T5, Taste receptor type 2 member 19 (Homo sapiens) (UniProt P59542); assay: Agonist activity at human TAS2R48 expressed in HEK293T cells co-expressing Galpha15 assessed as increase in intracellular calcium level at 20 mM by Calcium-3 dye based fluorescence assay relative to control
T5 sequence (whole entry): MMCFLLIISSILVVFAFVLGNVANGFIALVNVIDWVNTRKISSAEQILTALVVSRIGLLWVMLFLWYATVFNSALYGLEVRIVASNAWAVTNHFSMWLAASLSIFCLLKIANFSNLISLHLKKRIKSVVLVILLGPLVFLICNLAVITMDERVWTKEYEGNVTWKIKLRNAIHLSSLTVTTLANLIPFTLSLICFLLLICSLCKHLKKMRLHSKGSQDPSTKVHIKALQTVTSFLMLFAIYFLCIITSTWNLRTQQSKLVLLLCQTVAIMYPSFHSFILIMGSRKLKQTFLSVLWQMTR

[6] = molecular target: T6, Taste receptor type 2 member 41 (Homo sapiens) (UniProt P59536); assay: Agonist activity at human TAS2R41 expressed in HEK293T cells co-expressing Galpha15 assessed as increase in intracellular calcium level at 20 mM by Calcium-3 dye based fluorescence assay relative to control
T6 sequence (whole entry): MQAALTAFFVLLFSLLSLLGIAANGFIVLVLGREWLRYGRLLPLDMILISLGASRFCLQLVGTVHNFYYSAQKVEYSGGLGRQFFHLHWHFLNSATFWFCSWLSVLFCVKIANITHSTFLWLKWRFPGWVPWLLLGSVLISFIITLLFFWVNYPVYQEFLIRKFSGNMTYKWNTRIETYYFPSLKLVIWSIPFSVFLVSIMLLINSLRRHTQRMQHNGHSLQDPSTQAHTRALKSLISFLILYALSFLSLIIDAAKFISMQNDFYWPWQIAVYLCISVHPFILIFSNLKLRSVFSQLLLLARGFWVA

[7] = molecular target: T7, Taste receptor type 2 member 30 (Homo sapiens) (UniProt P59541); assay: Agonist activity at human TAS2R47 expressed in HEK293T cells co-expressing Galpha15 assessed as increase in intracellular calcium level at 20 mM by Calcium-3 dye based fluorescence assay relative to control
T7 sequence (whole entry): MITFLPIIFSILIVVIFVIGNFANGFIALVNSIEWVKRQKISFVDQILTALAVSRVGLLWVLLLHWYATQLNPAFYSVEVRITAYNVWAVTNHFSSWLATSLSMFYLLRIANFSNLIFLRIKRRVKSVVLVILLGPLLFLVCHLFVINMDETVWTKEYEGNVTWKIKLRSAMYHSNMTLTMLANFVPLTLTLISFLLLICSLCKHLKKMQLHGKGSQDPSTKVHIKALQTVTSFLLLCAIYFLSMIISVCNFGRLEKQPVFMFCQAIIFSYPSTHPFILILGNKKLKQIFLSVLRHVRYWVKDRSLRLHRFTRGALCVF

Structure (SMILES)	Activity [1]	Activity [2]	Activity [3]	Activity [4]	Activity [5]	Activity [6]	Activity [7]
[Cl-].[K+] [POTASSIUM CHLORIDE]	< 40%	< 40%	< 40%	< 40%	< 40%	< 40%	< 40%
CC1=CC(=O)NS(=O)(=O)O1	< 40%	< 40%	< 40%	> 40%	< 40%	< 40%	< 40%
CC(O)C(=O)[O-].[K+] (stereo unspecified)	< 40%	< 40%	< 40%	< 40%	< 40%	< 40%	< 40%
